One data set deals with zebrafish larvae. As to the kind of experiment: Zebrafish larval toxicity (NOEC, lethal dose). Format: in vivo. As to conditions: 7 dpf zebrafish larvae. The method, then: Using a 96-well plate, one zebrafish larva (7 dpf) was placed in each well in 100 μL of tank water (TW). 100 μL of each compound (0.5-15 μM) was then added to each well for 12 animals (one row) to give a final volume of 200 […]. A control row was tested for DMSO toxicity effects. […] Each drug was assessed for the no observed effect concentration (NOEC), the highest non-lethal dose resulting in no apparent toxic effects.
Zebrafish (AB strain) were obtained from the Zebrafish International Resource Center (supported by P40 RR012546 from NIH-NCRR). Zebrafish were maintained and crossed according to standard methods (Westerfield, 2000). Fertilized eggs were collected and placed in E3 embryo medium and positioned in an incubator set at 28.5° C. with a 14/10 h light/dark cycle (Kimmel et al., 1995). To determine the lethal dose of each compound, 96-well plates containing one zebrafish (7 days post-fertilization, dpf) per well in 100 μL of tank water were used. 100 μL of each compound (0.5 to 15 μM) was added to each well for 12 animals (one row) for a final volume of 200 μL. One row of larvae was used as DMSO only controls. […] All zebrafish studies were approved by the Medical University of South Carolina Institutional Animal Care and Use Committee (AR #2850) and performed in accordance with the guidelines.
Using a 96-well plate, one zebrafish larva (7 dpf) was placed in each well in 100 μL of tank water. 100 μL of each compound was then added to each well for 12 animals (one row) for a final volume of 200 μL. One row of zebrafish larvae was used as DMSO only controls. […] Toxicity was also measured in the mouse model by the NIH Anticonvulsant Screening Program at the National Institute of Neurological Disorders and Stroke (Stables and Kupferberg, 1997), according to the established NIH experimental procedures. Compounds were delivered into mice by intraperitoneal (i.p.) injection at a dose of 100 mg/kg in sterile 5% DMSO, 95% Neobee (Josey et al., 2013). Acute toxicity was assessed by monitoring the animals for impaired neuromuscular function by placing treated mice on a rod rotating at 6 rpm. […]

In the next data set the test system is PTZ-induced seizures. As to the kind of experiment: PTZ-induced seizure (swim activity) model in zebrafish larvae. Format: in vivo, zebrafish (Danio rerio). How it is done:
The DanioVision locomotion tracking instrument with Ethovision XT software (Noldus) was used to measure the severity of the seizures by quantifying the locomotor activity of each fish.
In a 48-well plate, one 6-7 dpf larva was added per well. Compounds were given at a sub-lethal dose and treated for 1 h. Three control rows were included—tank water (TW) only, PTZ only and PTZ+VPA (2-4 mM final concentration of VPA). […] After 5 min, the plate was transferred to the Daniovision apparatus and the chamber light was turned on. After 2 min, Ethovision was used to determine the distance traveled (a marker of seizure of activity) by each fish for 15 min (25 frames per second). Velocity, duration of movement, and frequency of movement were also determined from the same recording. After measurement, fish were monitored visually for survival. The distance moved over the recording period with Ethovision XT software (Noldus) was averaged over 8 wells per treatment unless the fish was not detected.
In a 48-well plate, one 7 dpf zebrafish was added per well. Larvae were dosed with each compound at a sub-lethal dose 1 h prior to PTZ treatment. Three control rows were included with each experiment—tank water only control, PTZ only and PTZ+VPA (4 mM final concentration of VPA). […] After 5 min, the plate was transferred to the Daniovision instrument (Noldus Information Technology) and the chamber light was turned on. After 2 min, MediaRecorder (Noldus) was used to record video for 15 min. A small number of videos were acquired 25 frames per second, but the majority of the data was acquired at the frame rate of 60 frames per second. After recording, fish were monitored visually for survival. Ethovision XT software (Noldus) was used to track the fish movement from the video images in order to calculate the total distance traveled over 15 min. […] All experimental comparisons were made between animals from the same clutch.

Data set [1] has as its system HT22 cells. As to the kind of experiment: In vitro neuroprotective activity against glutamate-induced cell death (MTS cell viability). The format is cell-based, mouse. As to conditions: for EC50: Mus musculus, read-out: Protection PC50. How it is done: (§1) The HT22 neuronal cell line is a subclone of HT4, derived from the mouse hippocampus (Morimoto and Koshland, 1990). […] HT22 cells were used. The cells were grown in Dulbecco's Modified Eagle's medium (DMEM/high glucose) supplemented with 10% fetal bovine serum (Hyclone) and 5 mL Antibiotic-Antimycotic (Amphotericin B, Penicillin, and Streptomycin; Invitrogen) at 37° C. in 5% CO2.
(§2) Cell viability was assessed by the ability of the viable cells to metabolize 3-(4,5-dimethylthiazol-2-yl)-5-(3-carboxymethoxyphenyl)-2(4-sulfophenyl)2-H-tetrazolium, inner salt (MTS), as described previously (Cory et al., 1991). The metabolism of tetrazolium salts is often used to measure cellular proliferation, but in the system used here, it has been previously shown to correlate well with cell viability as determined by trypan blue exclusion and colony-forming assays (Davis and Maher, 1994). Briefly, HT-22 cells were seeded onto 96-well plates at 5.0×10^3 cells per well in 75 μL of medium and maintained at 37° C. in 5% CO2 overnight prior to the initiation of experimental treatments. For glutamate toxicity testing, cells were subsequently treated with 25 μL of medium containing glutamate (monosodium glutamate, Sigma, 1 M stock concentration in media, to achieve a final concentration of 10 mM) plus inhibitors (stock in DMSO) and maintained at 37° C. in 5% CO2. For t-BuOOH toxicity testing, cells were subsequently treated with 25 μL of medium containing t-BuOOH (Sigma, 10 mM stock concentration, to achieve a final concentration of 50 μM) plus inhibitors (stock in DMSO) and maintained at 37° C. in 5% CO2 for 3 hours, after which the media was removed, cells washed gently with HBSS, the media replaced with standard culture media, and the cells returned to incubation at 37° C. in 5% CO2. For both glutamate and t-BuOOH treatments, 10 μl of MTS solution was added to each well 24 hrs after initial treatment, and the cells were maintained in growth medium for 2 h at 37° C. Absorbance at 490 nm was subsequently measured by a SpectraMax 190 plate reader (Molecular Devices). The growth medium without cells in the presence of MTS solution was used as solution background and untreated cells were considered the controls. Cell viability was calculated as a percentage compared with untreated controls. EC50 determinations were based on 12-point titrations using GraphPad Prism, and each experiment was repeated at least four times. Morphology of HT22 cells following treatments was determined by phase-contrast microscopy. Digital images of cells grown on cell culture plates were captured at 10× magnification.
The neuroprotective properties of VK and its derivatives were estimated through their protective effects against cell death in mouse neuronal HT22 cells induced by exposure to high levels of glutamate, which recapitulates a hallmark of the extracellular environment found in several neurodegenerative diseases and CNS injuries and is a well established model of neuronal oxidative stress. This investigation began by comparing the relative abilities of the two predominant naturally occurring forms of VK, VK1 and VK2, to prevent oxidative cell death. […] Several 1,4-naphthoquinones with various substitutions at the 2′ and 3′ positions were tested to determine the minimum structural requirement of the system and what the optimum scaffold for future developmental efforts and biological validation would be (FIG. 1B and Table 1). […] Substitution by a single methyl group at the 2′ position (VK3) improves the compound's ability to protect against cell death. Various other simple substituents at the 2′ and 3′ positions give the naphthoquinone structure the ability to prevent oxidative cell death at nanomolar concentrations (Table 1 and FIG. 16).

The nature of data set [2]: In vitro neurotoxicity without glutamate (MTS cell viability). The format is cell-based, mouse. To be noted: mouse, HT22 cells without glutamate, 24 hrs, MTS, concentration producing 50% toxicity, read-out: Toxicity TC50. How it is done: as §1, §2
For data set [3], the system named is HT22 cells. The data set is described as above. As to conditions: for Safety Index TC50/PC50: HT22 cells. The format is cell-based, mouse. The method, then: as §1, §2
Where [4] appears, read: HT-22, HT22 cells, 10 mM glutamate, 24 hrs, MTS, concentration producing 50% protection.
The mark [5] stands for this setting: HT22 neuronal cells (without glutamate).

SMILES strings stand for the structures. Read-outs that look alike come from different tables or passages of the source. Some results are limits rather than exact numbers.

Regarding `CCCC(CCC)C(=O)NO` [2-propylpentane hydroxamic acid (VPHA), 2-propylpentane hydroxamic acid], the Lethal dose with zebrafish larvae (up to 5 h treatment) is more than 0.05 mM. In addition, the “Highest concentration tested for anti-seizure activity” value in the data set on zebrafish larvae (highest sub-lethal dose) is 0.05 mM. The Seizure suppression entry in the data set on PTZ-induced seizures (PTZ-treated zebrafish larvae, pretreated 1 hr at NOEC) is listed as “No”.
For the compound `CC(C)C(=O)NC1=CC(=O)c2ccccc2C1=O` [Compound 3d, N-(1,4-dioxo-1,4-dihydronaphthalen-2-yl)isobutyramide], the EC50 with HT22 cells [1] (setting [4]) was more than 1 µM. For the same compound, the CC50 at 24 h in data set [2] (setting [5]) was 8 µM. The “Safety Index TC50/PC50” value with HT22 cells [3] was determined as 0.
The like results for `O=C1C=C(NC(=O)C2CCCC2)C(=O)c2ccccc21` [Compound 3e, N-(1,4-dioxo-1,4-dihydronaphthalen-2-yl)cyclopentanecarboxamide] were, in that order, more than 1 µM, 6 µM and 0.
Consider `O=C1C=C(NC(=O)C2CCCCC2)C(=O)c2ccccc21` [Compound 3f, N-(1,4-dioxo-1,4-dihydronaphthalen-2-yl)cyclohexanecarboxamide], for which the EC50 in the data set on HT22 cells [1] (setting [4]) was 0.275 µM. Moreover, the CC50 at 24 h in data set [2] (setting [5]) amounted to 14 µM. For the same compound, the “Safety Index TC50/PC50” value in the data set with HT22 cells [3] stood at 51.
Consider `O=C(NC1=CC(=O)c2ccccc2C1=O)c1ccccc1` [Compound 3g, N-(1,4-dioxo-1,4-dihydronaphthalen-2-yl)benzamide], for which the EC50 with HT22 cells [1] (HT-22, 24 h) was found to be 0.5 µM. In data set [2] (setting [5]), the CC50 at 24 h was determined as 17 µM. Further, the “Safety Index TC50/PC50” value in the data set with HT22 cells [3] turned out to be 34.
As for `Cc1ccc(C(=O)NC2=CC(=O)c3ccccc3C2=O)cc1` [Compound 3h, N-(1,4-dioxo-1,4-dihydronaphthalen-2-yl)-4-methylbenzamide], the EC50 in the data set with HT22 cells [1] (setting [4]) was 0.382 µM. For the same compound, the CC50 at 24 h in data set [2] (setting [5]) worked out at 24 µM. The “Safety Index TC50/PC50” value with HT22 cells [3] amounted to 63.
On to `O=C(NC1=CC(=O)c2ccccc2C1=O)c1ccc(Cl)cc1` [Compound 3i, 4-chloro-N-(1,4-dioxo-1,4-dihydronaphthalen-2-yl)benzamide], for which the EC50 in the data set with HT22 cells [1] (setting [4]) was 0.405 µM. For the same compound, the CC50 at 24 h in data set [2] (setting [5]) is 27 µM. Moreover, in the data set on HT22 cells [3], the “Safety Index TC50/PC50” value was 67.
Consider `O=C(NC1=CC(=O)c2ccccc2C1=O)c1cccc(Cl)c1` [Compound 3j, 3-chloro-N-(1,4-dioxo-1,4-dihydronaphthalen-2-yl)benzamide], for which the EC50 in the data set on HT22 cells [1] (setting [4]) is 0.492 µM. In addition, the CC50 at 24 h in data set [2] (setting [5]) was more than 100 µM. Further, in the data set with HT22 cells [3], the “Safety Index TC50/PC50” value was 203.
For the compound `O=C(Cc1ccccc1)NC1=CC(=O)c2ccccc2C1=O` [Compound 3k, N-(1,4-dioxo-1,4-dihydronaphthalen-2-yl)-2-phenylacetamide], in the data set on HT22 cells [1] (setting [4]), the EC50 is 0.658 µM. For the same compound, the CC50 at 24 h in data set [2] is 32 µM. In the data set with HT22 cells [3], the “Safety Index TC50/PC50” value stood at 49.
As to `O=C(Cc1ccc(-c2ccccc2)cc1)NC1=CC(=O)c2ccccc2C1=O` [Compound 3l, 2-([1,1′-biphenyl]-4-yl)-N-(1,4-dioxo-1,4-dihydronaphthalen-2-yl)acetamide], in the data set on HT22 cells [1] (setting [4]), the EC50 came out at 0.89 µM. Further, the CC50 at 24 h in data set [2] (setting [5]) was found to be 42 µM. In the data set with HT22 cells [3], the “Safety Index TC50/PC50” value stood at 47.
For `CCNC(=O)NC1=CC(=O)c2ccccc2C1=O` [Compound 4a, 1-(1,4-dioxo-1,4-dihydronaphthalen-2-yl)-3-ethylurea], the EC50 with HT22 cells [1] (setting [4]) was determined as 0.177 µM. Also, the CC50 at 24 h in data set [2] amounted to 5 µM. The “Safety Index TC50/PC50” value in the data set on HT22 cells [3] came to 28.
Turning to `CC(C)NC(=O)NC1=CC(=O)c2ccccc2C1=O` [Compound 4b, 1-(1,4-dioxo-1,4-dihydronaphthalen-2-yl)-3-isopropylurea], in the data set on HT22 cells [1] (setting [4]), the EC50 turned out to be 0.064 µM. For the same compound, the CC50 at 24 h in data set [2] (setting [5]) amounted to 8 µM. For the same compound, the “Safety Index TC50/PC50” value with HT22 cells [3] is given as 125.
Take `O=C(NC1=CC(=O)c2ccccc2C1=O)Nc1ccccc1` [Compound 4c, 1-(1,4-dioxo-1,4-dihydronaphthalen-2-yl)-3-phenylurea]: in the data set on HT22 cells [1] (setting [4]), the EC50 was 0.89 µM. In addition, the CC50 at 24 h in data set [2] (setting [5]) is more than 100 µM. Also, the “Safety Index TC50/PC50” value with HT22 cells [3] is listed as 112.
With `O=C(NCc1ccccc1)NC1=CC(=O)c2ccccc2C1=O` [Compound 4d, 1-benzyl-3-(1,4-dioxo-1,4-dihydronaphthalen-2-yl)urea], in the data set on HT22 cells [1] (setting [4]), the EC50 came to 0.74 µM. Further, the CC50 at 24 h in data set [2] was more than 100 µM. Moreover, the “Safety Index TC50/PC50” value in the data set with HT22 cells [3] is listed as 135.
As for `CC1=C(C/C=C(\C)CCC[C@H](C)CCC[C@H](C)CCCC(C)C)C(=O)c2ccccc2C1=O` [VK1, phylloquinone, reference compound], in the data set with HT22 cells [1] (HT22 cells, glutamate), the “protection from oxidative cell death” value is reported as “rescued HT22 cells from oxidative cell death”. In the data set on PTZ-induced seizures (PTZ-treated 6 dpf zebrafish, up to 100 mM), the reduction of seizures entry is on record as “neither were found to reduce seizures”. In addition, in the data set with HT22 cells [3], the cellular toxicity result is reported as “neither exhibited any signs of cellular toxicity”.

(Values after US10391070B2, “Compositions and methods for treating neurological diseases or injury” (MUSC FOUNDATION FOR RESEARCH DEVELOPMENT, priority 2012, dated 2019).)
